Legend:
Format in all cases: in vivo, Sorghum bicolor
[1] = tested on: F1 Hybrid 1_W2032C (single copy of W2032C ACCase); test: Field tolerance test, Quizalofop-P-ethyl (Assure II) spray; conditions: 1 copy, 1-9 score, 1 dead, 9 no visible response
Procedure: (§1) The ACCase edited plants generated in Example 1 were outcrossed with 3 male sterile lines in a controlled environment. The F1 plants which contain a single copy of the W2032C edit in the ACCase gene and the edited elite inbred line containing 2 copies of the W2032C ACCase (hereinafter referred to as […]) along with the non-edited elite inbred (wt control) and the 3 male sterile lines were tested in the field for efficacy. Four short rows, each row with ~100 seedlings, were planted for each variety in replicate. Once the plants reached the 5-6 leaves stage, replicate 1 for each variety was treated with a 1× dose of Assure II (Quizalofop-P-ethyl) and replicate 2 for each variety was treated with a 2× dose of Assure II (Quizalofop-P-ethyl). Plants were then scored for tolerance at 7- and 14-days post application. The plots were scored by giving a 1-9 score to each plot, with 1 being dead and 9 no visible response.
(§2) The PH2545MW_W2032C was given score of 7 with 1× dose of Quizalofop-P-ethyl application (Table 4), as some twisting of the leaves due to herbicide injury was observed, however, after a week or so the twisting of the leaves may not be visible anymore because they were growing out of it, which may be indicated by the score change from 5 to 6 at day 7 and day 14 post 2× dose of Quizalofop-P-ethyl application.

[2] = tested on: F1 Hybrid 2_W2032C (single copy of W2032C ACCase); test: as above; conditions: 1 copy, 1-9 score, 1 dead, 9 no visible response
Procedure: as §1, §2

[3] = tested on: F1 Hybrid 3_W2032C (single copy of W2032C ACCase); test: as above; conditions: 1 copy, 1-9 score, 1 dead, 9 no visible response
Procedure: as §1, §2

Male Sterile 1_WT = test: as above; conditions: 0 copies, 1-9 score, 1 dead, 9 no visible response
Procedure: as §1, §2

Male Sterile 2_WT = test: as above; conditions: 0 copies, 1-9 score, 1 dead, 9 no visible response
Procedure: as §1, §2

Male Sterile 3_WT = test: as above; conditions: 0 copies, 1-9 score, 1 dead, 9 no visible response
Procedure: as §1, §2

[4] = tested on: elite inbred_W2032C (2 copies of W2032C ACCase); test: as above; conditions: for 7-day Post Application Score / 14-day Post Application Score: elite inbred_W2032C, 2 copies
Procedure: as §1, §2

[5] = tested on: elite inbred_WT (non-edited elite inbred, wt control); test: as above; conditions: 0 copies W2032C, 1-9 score, 1 dead, 9 no visible response
Procedure: as §1, §2

[6] = tested on: homozygous ACCase edited T1 plants; test: Spray test of T1 plants with quizalofop-p-ethyl; conditions: all 19 homozygous ACCase edited T1 plants, 8-leaf stage, 7 fl. ounce (0.034-0.083 lb ai)
From the text: (§3) ACCase edited T1 seeds were planted in flats, all seeds germinated and were heathy looking. Additionally, they were all able to produce T2 seeds with high seed count setting. Nineteen homozygous ACCase edited T1 plants at the 8-leaf stage were sprayed with quizalofop-p-ethyl at a rate of 7 fl. ounce (0.034-0.083 lb ai), which is the average dose from the Assure II label. […] A subset of the T1 plants after the spray test were kept to maturity and all produced T2 seeds with good seed setting. In contrast, the wild-type control plants were all susceptible to the quizalofop-p-ethyl spray and died.

wild-type control plants = test: Spray test of T1 plants with quizalofop-p-ethyl; conditions: 7 fl. ounce (0.034-0.083 lb ai), all died
From the text: as §3

[7] = tested on: control plants without the W2032C ACCase edit; test: Field tolerance test, summary in words; conditions: all plants dead at 10-14 days post spray
Procedure: as §1

[8] = tested on: three F1 hybrids with a single copy of the W2032C ACCase edit; test: Field tolerance test, summary in words; conditions: 1x or 2x Assure II
Procedure: as §1

[9] = 1x dose, 1-9 score, 1 dead, 9 no visible response
[10] = 2x dose, 1-9 score, 1 dead, 9 no visible response

CCOC(=O)[C@@H](C)Oc1ccc(Oc2cnc3cc(Cl)ccc3n2)cc1 [Quizalofop-P-ethyl]
1: 14-day Post Application Score (Male Sterile 1_WT; 1x dose) | 14-day Post Application Score (Male Sterile 1_WT; 2x dose) | 14-day Post Application Score (Male Sterile 2_WT; 1x dose) | 14-day Post Application Score (Male Sterile 2_WT; 2x dose) | 14-day Post Application Score (Male Sterile 3_WT; 1x dose) | 14-day Post Application Score (Male Sterile 3_WT; 2x dose) | 14-day Post Application Score ([5]; 1x dose) | 14-day Post Application Score ([5]; 2x dose)
7: field tolerance score (day not stated) ([4]; PH2545MW_W2032C, 1x dose, some twisting of the leaves, 1-9 score, 1 dead, 9 no visible response) | 7-day Post Application Score [4, 9] | 14-day Post Application Score [4, 9]
some tolerance: tolerance to the herbicide in the field [8]
tolerance: tolerance to the herbicide in the field ([4]; inbred_W2032C plants, 1x or 2x Assure II at 5-6 leaves stage)
no tolerance: tolerance to the herbicide in the field [7]
2: 7-day Post Application Score (Male Sterile 1_WT; 1x dose) | 7-day Post Application Score (Male Sterile 1_WT; 2x dose) | 7-day Post Application Score (Male Sterile 2_WT; 1x dose) | 7-day Post Application Score (Male Sterile 2_WT; 2x dose) | 7-day Post Application Score (Male Sterile 3_WT; 2x dose)
resistance (tolerance): response of plants to the herbicide spray [6]
susceptible: response of plants to the herbicide spray (wild-type control plants)
4: 14-day Post Application Score ([1]; 1x dose) | 7-day Post Application Score ([1]; 2x dose) | 14-day Post Application Score ([2]; 1x dose) | 14-day Post Application Score ([3]; 2x dose)
3: 14-day Post Application Score ([1]; 2x dose) | 14-day Post Application Score ([2]; 2x dose) | 14-day Post Application Score ([3]; 1x dose) | 7-day Post Application Score (Male Sterile 3_WT; 1x dose) | 7-day Post Application Score ([5]; 1x dose) | 7-day Post Application Score ([5]; 2x dose)
6: 14-day Post Application Score [4, 10]
5: 7-day Post Application Score ([1]; 1x dose) | 7-day Post Application Score ([2]; 1x dose) | 7-day Post Application Score ([2]; 2x dose) | 7-day Post Application Score ([3]; 1x dose) | 7-day Post Application Score ([3]; 2x dose) | 7-day Post Application Score [4, 10]

Source: patent US20260234651A1, “ACETYL-COA CARBOXYLASE INHIBITOR RESISTANT SORGHUM” (PIONEER HI-BRED INTERNATIONAL, INC., priority 2023, published 2026)
